Laboratory results as given in US20070179060A1, “6-(Poly-substituted aryl)-4-aminopicolinates and their use as herbicides” (priority 2006, published 2007).

Experiments:
[1] = test system: lambsquarter (Chenopodium album); assay: Postemergence herbicidal activity; format: in vivo; conditions: Chenopodium album, post-emergence, 336 h, post-emergent, 140 g ai/ha, after 14 days; read-out: % Control CHEAL
In short: (§1)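 Plants grown 7-21 days in greenhouse (about 15 h photoperiod, 23-29° C day, 22-28° C night) to first or second true leaf stage. Compounds in acetone/water/isopropanol/DMSO carrier with crop oil concentrate and Triton X-155 sprayed overhead at 187 L/ha; controls received solvent blank. Plants sub-irrigated afterwards; dose responses analysed by probit analysis.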

[2] = test system: redroot pigweed (Amaranthus retroflexus); assay: Postemergence herbicidal activity; format: in vivo; conditions: Amaranthus retroflexus, post-emergence, 336 h, post-emergent, 140 g ai/ha, after 14 days; read-out: % Control AMARE
In short: as §1

[3] = test system: velvetleaf (Abutilon theophrasti); assay: Postemergence herbicidal activity; format: in vivo; conditions: Abutilon theophrasti, post-emergence, 336 h, post-emergent, 140 g ai/ha, after 14 days; read-out: % Control ABUTH
In short: as §1

Scirpus juncoides = assay: Herbicidal activity in transplanted paddy rice; format: in vivo; conditions: Schoenoplectiella juncoides, 504 h, paddy water application, after 3 weeks, read-out: % Control SCPJU; for pest or weed control at 17.5 g/ha: 17.5 g ai/ha; for pest or weed control at 70 g/ha: 70 g ai/ha
Procedure: (§2) Weed seeds or nutlets of the desired test plant species were planted in puddled soil (mud) prepared by mixing a non-sterilized mineral soil (28 percent silt, 18 percent clay, and 54 percent sand, with a pH of about 7.3 to 7.8 and an organic matter content of about 1.0 percent) and water at a ratio of 100 kg of soil to 19 L of water. The prepared mud was dispensed in 250 mL aliquots into 480 mL non-perforated plastic pots with a surface area of 91.6 square centimeters leaving a headspace of 3 centimeters in each pot. […] Seedlings at the second or third leaf stage of growth were transplanted into 650 mL of mud contained in 960 mL non-perforated plastic pots with a surface area of 91.6 square centimeters 4 days prior to herbicide application. The paddy was created by filling the 3 centimeter headspace of the pots with water. When required to ensure good germination and healthy plants, a fungicide treatment and/or other chemical or physical treatment was applied. The plants were grown for 4-14 days in a greenhouse with an approximate 14 hour photoperiod which was maintained at about 29° C. during the day and 26° C. during the night. Nutrients were added as Osmocote (17:6:10, N:P:K+minor nutrients) at 2 g per pot. Water was added on a regular basis to maintain the paddy flood, and supplemental lighting was provided with overhead metal halide 1000-Watt lamps as necessary. The plants were employed for testing when they reached the second or third true leaf stage. A weighed amount, determined by the highest rate to be tested, of each test compound was placed in a 120 mL glass vial and was dissolved in 20 mL of acetone to obtain concentrated stock solutions. […] Application rates of ½×, ¼×, ⅛× and 1/16× of the high rate were obtained by injecting an appropriate amount of the stock solution into the aqueous layer of the paddy. Control plants were treated in the same manner with the solvent blank. The treated plants and control plants were placed in a greenhouse as described above and water was added as needed to maintain a paddy flood.

Echinochloa crus-galli = assay: Herbicidal activity in transplanted paddy rice; format: in vivo; conditions: Echinochloa crus-galli, 504 h, paddy water application, after 3 weeks, read-out: % Control ECHCG; for pest or weed control at 17.5 g/ha: 17.5 g ai/ha; for pest or weed control at 70 g/ha: 70 g ai/ha
Procedure: as §2

Monochoria vaginalis = assay: Herbicidal activity in transplanted paddy rice; format: in vivo; conditions: Pontederia vaginalis, 504 h, paddy water application, after 3 weeks, read-out: % Control MOOVA; for pest or weed control at 17.5 g/ha: 17.5 g ai/ha; for pest or weed control at 70 g/ha: 70 g ai/ha
Procedure: as §2

Cyperus difformis = assay: Herbicidal activity in transplanted paddy rice; format: in vivo; conditions: Cyperus difformis, 504 h, paddy water application, after 3 weeks, read-out: % Control CYPDI; for pest or weed control at 17.5 g/ha: 17.5 g ai/ha; for pest or weed control at 70 g/ha: 70 g ai/ha
Procedure: as §2

[4] = test system: rice (Orysa sativa var. Japonica); assay: Herbicidal activity in transplanted paddy rice; format: in vivo; conditions: Oryza sativa, 504 h, transplant rice (crop), paddy water application, after 3 weeks; for pest or weed control at 17.5 g/ha: 17.5 g ai/ha; for pest or weed control at 70 g/ha: 70 g ai/ha
Procedure: as §2

[5] = test system: lambsquarter (Chenopodium album); assay: Preemergence herbicidal activity; format: in vivo; conditions: Chenopodium album, pre-emergence, 480 h; pre-emergent, 140 g ai/ha, after 20-22 days; read-out: % Control CHEAL
In short: (§3)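 Seeds sown in 70:30 loam (pH about 8.1, about 1.5% organic matter) and sand mix, then sprayed preemergence at 187 L/ha with a track sprayer; controls received solvent blank. Pots kept in greenhouse, about 15 h photoperiod, about 23-29° C. day and 22-28° C. night, top-irrigated.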

[6] = test system: redroot pigweed (Amaranthus retroflexus); assay: Preemergence herbicidal activity; format: in vivo; conditions: Amaranthus retroflexus, pre-emergence, 480 h; pre-emergent, 140 g ai/ha, after 20-22 days; read-out: % Control AMARE
In short: as §3

[7] = test system: velvetleaf (Abutilon theophrasti); assay: Preemergence herbicidal activity; format: in vivo; conditions: Abutilon theophrasti, pre-emergence, 480 h; pre-emergent, 140 g ai/ha, after 20-22 days; read-out: % Control ABUTH
In short: as §3

SMILES | melting point | pest or weed control at 140 g/ha [1] | pest or weed control at 140 g/ha [2] | pest or weed control at 140 g/ha [3] | pest or weed control at 17.5 g/ha (Scirpus juncoides) | pest or weed control at 17.5 g/ha (Echinochloa crus-galli) | pest or weed control at 17.5 g/ha (Monochoria vaginalis) | pest or weed control at 17.5 g/ha (Cyperus difformis) | pest or weed control at 17.5 g/ha [4] | pest or weed control at 70 g/ha (Scirpus juncoides) | pest or weed control at 70 g/ha (Echinochloa crus-galli) | pest or weed control at 70 g/ha (Monochoria vaginalis) | pest or weed control at 70 g/ha (Cyperus difformis) | pest or weed control at 70 g/ha [4] | also measured
COC(=O)c1nc(-c2ccc(Cl)c(C(F)F)c2F)cc(N)c1Cl [Compound 4, 4-Amino-3-chloro-6-(4-chloro-2-fluoro-3-difluoromethylphenyl)pyridine-2-carboxylic acid methyl ester] | 145 to 146 °C | 85% | 100% | 100% | 70% | 0% | 100% | 95% | 0% |  |  |  |  |  | 
COC(=O)c1nc(-c2ccc(Cl)c(CF)c2F)cc(N)c1Cl [Compound 5, 4-Amino-3-chloro-6-(4-chloro-2-fluoro-3-fluoromethylphenyl)pyridine-2-carboxylic acid methyl ester] |  | 90% | 35% | 100% |  |  |  |  |  | 90% | 20% | 100% | 100% | 0% | 
CCOc1c(Cl)ccc(-c2cc(N)c(Cl)c(C(=O)OC)n2)c1Cl [Compound 7, 4-Amino-3-chloro-6-(2,4-dichloro-3-ethoxyphenyl)pyridine-2-carboxylic acid methyl ester] | 132 to 133 °C | 95% | 90% | 100% |  |  |  |  |  | 85% | 100% | 100% | 100% | 10% | 
CCOc1c(Cl)ccc(-c2cc(N)c(Cl)c(C(=O)OC)n2)c1F [Compound 41, 4-amino-3-chloro-6-(4-chloro-2-fluoro-3-ethoxyphenyl)-pyridine-2-carboxylic acid methyl ester] | 154 to 156 °C | 98% | 85% | 95% | 90% | 50% | 100% | 100% | 10% |  |  |  |  |  | pest or weed control at 140 g/ha [5]: 90%; pest or weed control at 140 g/ha [6]: 50%; pest or weed control at 140 g/ha [7]: 80%
COC(=O)c1nc(-c2ccc3c(c2F)OCO3)cc(N)c1Cl [Compound 46, 4-Amino-3-chloro-6-(2-fluoro-3,4 methylenedioxyphenyl)pyridine-2-carboxylic acid methyl ester] | 139 to 141 °C | 95% | 100% | 100% |  |  |  |  |  |  |  |  |  |  | pest or weed control at 35 g/ha (Scirpus juncoides; 35 g ai/ha): 100%; pest or weed control at 35 g/ha (Echinochloa crus-galli; 35 g ai/ha): 20%; pest or weed control at 35 g/ha (Monochoria vaginalis; 35 g ai/ha): 100%; pest or weed control at 35 g/ha (Cyperus difformis; 35 g ai/ha): 100%; pest or weed control at 35 g/ha ([4]; 35 g ai/ha): 0%
